Values quoted from earlier work in patent EP3067353A1, “A PROCESS FOR THE PREPARATION OF SOLIFENACIN SALTS AND THEIR INCLUSION INTO PHARMACEUTICAL DOSAGE FORMS” (KRKA, D.D., Novo Mesto, priority 2008, dated 2010).
Where a name gives a salt, the structure may show the parent alone.

Tests used:
[1] = relative humidity of 70% (room temperature)

In the case of O=C(O[C@H]1CN2CCC1CC2)N1CCc2ccccc2[C@@H]1c1ccccc1 [hydrochloride], the “impurities during long term storage” value is listed as “increase of impurities during long term storage” and the hygroscopicity [1] is listed as “so hydroscopic as to deliquence”.
